Measurements as given in patent publication US20080138284A1, “Novel Peptides That Promote Lipid Efflux” (Lipid Sciences, Inc., priority 2006, published 2008).
Ends that are not written are not given here.

Legend:
[1] = tested on: FU5AH rat hepatoma cells (SR-B1); assay: SR-B1 mediated cholesterol efflux; format: cell-based; conditions: peptide samples run at 30 μg/ml
Source text: (§1) The methods employed in this study have been described in U.S. Pat. Nos. 7,029,863, 7,060,452, U.S. Patent Application Publication No. 2005/0191715, and in Moya et al., Arteriosclerosis & Thrombosis 1994:14:1056-1065 and Liu et al., J. Biol. Chem., 2003:278(44), 42976-42984. SR-B1 mediated cholesterol efflux is examined in FU5AH rat hepatoma cells and ABCA1 mediated cholesterol efflux is examined in J774 mouse macrophage cells as described in these references.

[2] = tested on: J774 mouse macrophage cells (ABCA1); assay: ABCA1 mediated cholesterol efflux; format: cell-based; conditions: peptide samples run at 30 μg/ml
Source text: as §1

[3] = tested on: CD11b; assay: CD11b expression in stimulated monocytes by flow cytometry; format: cell-based; conditions: human monocytes, 1 μmol/L PMA, 20 μg/ml apoA-1 or peptide
Description: Monocyte Isolation Peripheral whole blood (PWB) is drawn from healthy consenting individuals into syringes containing sodium citrate (final concentration—19.2 mM). Resting human monocytes are isolated from PWB by density centrifugation with Lymphoprep (Axis Shield). Mononuclear cells (MNCs) are collected and monocytes are further separated to purity using the Dynal negative isolation kit (Invitrogen). Monocytes are resuspended in phosphate buffered saline (PBS) and cell number is determined counting cell suspension on an automated hematology analyzer (Sysmex, KX-21N, USA). Purification of HDL and apoA-1 Human plasma apoA-1 is isolated as previously described and the purity determined using total mass spectrometry. Flow Cytometry 100 μL of monocytes are stimulated with either 1 μmol/L phorbol-myristate-acetate (PMA) or 1 μg/ml lipopolysaccharide (LPS) (Sigma, Australia) in the presence or absence of apoA-1 (20 μg/ml), or 20 μg/ml of the test peptides of the present invention. SEQ ID NOs: 72, 80, 89, 354, 355 and 372 are also tested individually. The cells are incubated with the FITC conjugated antibody to either the active epitope of CD11b (eBiosciences, USA, Clone CBRM1/5) or total CD11b (Serotec, USA, Clone ICRF44) for 15 min at 37° C. Cells are then fixed with 4% paraformaldehyde. Samples are controlled for by using the appropriately matched isotype matched negative control (FITC-anti-mouse IgG) (Serotec, USA, Clone W3/25). CD11b expression is measured by flow cytometry using FACS Calibur (Becton Dickinson). Analysis is conducted using the Cell Quest Pro software. Statistical Analysis Values are presented as the mean ±SD or percentage of control ±SD. FACS results are analyzed for statistical significance using one-way ANOVA followed by Bonferroni post-hoc test. Significance is accepted at P<0.05. […] The combined effects of increasing cholesterol efflux and decreasing inflammation indicate that the peptides of the present invention effectively mimic the function of Apo AI and will decrease atherosclerosis.

[4] = tested on: apoE knockout and LDL-receptor knockout mice; assay: Aortic atherosclerosis after ip peptide injection in ApoE knockout and LDL receptor knockout mice; format: in vivo, mouse; conditions: 30 mg/kg ip three times per week, 4-5 or 8-10 weeks; 'proposed studies'
Description: ApoE knockout and LDL receptor knockout mice, two well established animal models for the study of atherosclerosis, are injected with either saline as control or the synthetic peptides of the present invention to ascertain if these peptides can be used to increase HDL and decrease atherosclerosis.
The mice receive 3 injections per week for either […] or 8-10 weeks. After the completion of the injection, the amount of hardening of the arteries or atherosclerosis is determined in the control injected animals and peptide injected animals to determine if the injections of the synthetic peptide decreased development of atherosclerosis.
The proposed studies test if intraperitoneal infusions of the apoA-I mimetic peptides of the present invention result in decreased aortic atherosclerosis in apoE and LDL receptor knockout mice, two well established mouse models of atherosclerosis.
Four to six week old C57B1/6 mice, apoE knockout (JAX 2052) and LDL-receptor knockout (JAX 2207) mice, all in the C57B1/6 background, are obtained from Jackson Laboratories. During the entire study, C57B1/6 and apoE knockout mice are maintained on a regular chow diet (0.02% cholesterol, 3% fat) and LDL-receptor mice are maintained on a Western diet (TD88137; Harlan Teklad; Madison, Wis. —containing 0.20% cholesterol and 21% fat).
In the first study (Infusion Study A), C57B1/6 mice as well as apoE knockout and LDL receptor knockout mice are injected by the intraperitoneal (ip) route or intravenous (iv) route with synthetic peptides of the present invention mimetic (30 mg/kg) on up to four different occasions two weeks apart. To evaluate changes in the plasma lipid and lipoprotein profile associated with injection of the synthetic peptide, blood for lipid analyses is obtained before and at 2, 4, 6, 24 and 48 hours after peptide injection. At the end of the study the animals are sacrificed.
For infusion studies B and C, mice are injected ip with either placebo or a synthetic peptide of the present invention (30 mg/kg) three times per week for either 4 to 5 weeks (Infusion Study B) or 8 to 10 weeks (Infusion Study C). Blood for lipid and lipoprotein analyses is obtained at the beginning of the study (day 0) and every two weeks after placebo/peptide injection and at the completion of the study. At the completion of the study (4 to 5 weeks for Infusion Study B and 8 to 10 weeks for Infusion Study C), the animals are sacrificed, organs harvested for analyses of cholesterol content and for aortic atherosclerosis.
For Infusion Study A, 5 four to six week old C57B1/6, apoE knockout (JAX 2052) and LDL receptor knockout (JAX 2207) control mice receive ip or iv injections of the synthetic peptide of the present invention for up to four times two weeks apart. The sequence of procedures for this study is as follows: • 1) Mice are first anaesthetized by using 1-3% isoflurane by inhalation prior to each ip injection to insure appropriate and complete delivery of placebo/peptide. • 2) Mice are injected with either placebo (0.2 ml saline) or apoA-I synthetic peptide (30 mg/kg in 0.2 ml saline) via either the intraperitoneal or intravenous route. • 3) In order to evaluate changes in the plasma lipids and lipoproteins in the time-frame between injections, each mouse in this study group is bled from the retro-orbital sinus following administration of a topical anesthesia. before and at 2, 4, 6, 24 and 48 hours after the peptide injection. No more than 300 ul blood is drawn during this 48 hour period. • 4) At the end of infusion study A all mice are sacrificed by using Avertin (2.5%, 0.011 ml/gm, ip) or ketamine (80 ug/gm, ip). […]

Row | Substance | effect on cholesterol efflux from the Fu5AH cells (SRB1 pathway) [1] | efflux of cholesterol from J774 macrophage cells (ABCA1 pathway) [2] | PMA induced CD11b expression [3] | aortic atherosclerosis compared to controls [4]
1 | SDELRQRLAARLEALKENAKPVLLESFKVSFLSALEEYTKK [SEQ ID NO:80] | negligible or no effect | stimulate efflux of cholesterol | significantly reduce PMA induced CD11b expression | decrease aortic atherosclerosis compared to controls
2 | LESAKVSALSALEEATKKAKPVLLESFKVSFLSALEEYTKK [SEQ ID NO:89] | negligible or no effect | stimulate efflux of cholesterol | significantly reduce PMA induced CD11b expression | decrease aortic atherosclerosis compared to controls
3 | GEEMRDRARAHVDALRTHAKPVLLESFKVSFLSALEEYTKK [SEQ ID NO:72] | negligible or no effect | stimulate efflux of cholesterol | significantly reduce PMA induced CD11b expression | decrease aortic atherosclerosis compared to controls
4 | Ac-Ser Asp Glu Leu Arg Gln Arg Leu Ala Ala Arg Leu Glu Ala Leu Lys Glu Asn Ala Lys Pro Val Leu Leu Glu Ser Phe Lys Val Ser Phe Leu Ser Ala Leu Glu Glu Tyr Thr Lys Lys-NH2 (Ac-SDELRQRLAARLEALKENAKPVLLESFKVSFLSALEEYTKK-NH2) [SEQ ID NO:355] | negligible or no effect | stimulate efflux of cholesterol | significantly reduce PMA induced CD11b expression | decrease aortic atherosclerosis compared to controls
5 | Ac-Leu Glu Ser Ala Lys Val Ser Ala Leu Ser Ala Leu Glu Glu Ala Thr Lys Lys Ala Lys Pro Val Leu Leu Glu Ser Phe Lys Val Ser Phe Leu Ser Ala Leu Glu Glu Tyr Thr Lys Lys-NH2 (Ac-LESAKVSALSALEEATKKAKPVLLESFKVSFLSALEEYTKK-NH2) [SEQ ID NO:372] | negligible or no effect | stimulate efflux of cholesterol | significantly reduce PMA induced CD11b expression | decrease aortic atherosclerosis compared to controls
6 | Ac-Gly Glu Glu Met Arg Asp Arg Ala Arg Ala His Val Asp Ala Leu Arg Thr His Ala Lys Pro Val Leu Leu Glu Ser Phe Lys Val Ser Phe Leu Ser Ala Leu Glu Glu Tyr Thr Lys Lys-NH2 (Ac-GEEMRDRARAHVDALRTHAKPVLLESFKVSFLSALEEYTKK-NH2) [SEQ ID NO:354] | negligible or no effect | stimulate efflux of cholesterol | significantly reduce PMA induced CD11b expression | decrease aortic atherosclerosis compared to controls
